Laboratory results reported in ChEMBL document CHEMBL3352178, “Antidepressant- and anxiolytic-like activity of 7-phenylpiperazinylalkyl-1,3-dimethyl-purine-2,6-dione derivatives with diversified 5-HT₁A receptor functional profile” (Bioorg Med Chem, 2015).
pKi: −log10 of the molar value. Calls of active or inactive are those of the source. The rule behind the calls is not given here.

Tests used:
Mus musculus [1] = test: Anxiolytic-like activity in mouse assessed as increase in number of punished crossings at 2.5 mg/kg, ip dosed 60 mins before test by four plate test; assay type: functional; conditions: route intraperitoneal
Mus musculus [2] = test: Effect on spontaneous locomotor activity in mouse at 2.5 mg/kg, ip; assay type: ADME, organism-based; design: dose 2.5 mg/kg, route intraperitoneal; conditions: in vivo
Mus musculus [3] = test: Anxiolytic-like activity in mouse assessed as increase in number of punished crossings at 2.5 mg/kg, ip dosed 60 mins before test in presence of 0.3 mg/kg, sc 5HT1A receptor antagonist WAY 100635 by four plate test; assay type: functional, organism-based
Mus musculus [4] = test: Antidepressant-like activity in mouse assessed as reduction in immobility time at 1.25 to 10 mg/kg, ip dosed 60 mins before test by forced swim test; assay type: functional, organism-based
[5] = molecular target: T1, 5-hydroxytryptamine receptor 1A (Rattus norvegicus, UniProt P19327); test: Displacement of [3H]-8-OH-DPAT from 5-HT1AR in rat hippocampus; assay type: tissue-based
T1 sequence (P19327 whole entry): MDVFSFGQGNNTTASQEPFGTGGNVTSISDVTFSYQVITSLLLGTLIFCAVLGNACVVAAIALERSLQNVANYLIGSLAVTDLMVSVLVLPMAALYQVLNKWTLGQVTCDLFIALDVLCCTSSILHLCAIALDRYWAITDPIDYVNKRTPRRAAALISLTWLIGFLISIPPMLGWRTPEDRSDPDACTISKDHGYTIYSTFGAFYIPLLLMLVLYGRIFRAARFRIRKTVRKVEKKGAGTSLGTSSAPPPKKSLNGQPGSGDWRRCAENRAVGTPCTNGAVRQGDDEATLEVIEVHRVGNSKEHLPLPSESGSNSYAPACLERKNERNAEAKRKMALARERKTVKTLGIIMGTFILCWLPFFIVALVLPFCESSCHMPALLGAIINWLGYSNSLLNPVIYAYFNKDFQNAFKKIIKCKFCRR

[6] = molecular target: 5-hydroxytryptamine receptor 2A (Rattus norvegicus, UniProt P14842); test: Displacement of [3H]-ketanserin from 5-HT2AR in rat cortex
5-hydroxytryptamine receptor 2A, sequence (P14842 whole entry): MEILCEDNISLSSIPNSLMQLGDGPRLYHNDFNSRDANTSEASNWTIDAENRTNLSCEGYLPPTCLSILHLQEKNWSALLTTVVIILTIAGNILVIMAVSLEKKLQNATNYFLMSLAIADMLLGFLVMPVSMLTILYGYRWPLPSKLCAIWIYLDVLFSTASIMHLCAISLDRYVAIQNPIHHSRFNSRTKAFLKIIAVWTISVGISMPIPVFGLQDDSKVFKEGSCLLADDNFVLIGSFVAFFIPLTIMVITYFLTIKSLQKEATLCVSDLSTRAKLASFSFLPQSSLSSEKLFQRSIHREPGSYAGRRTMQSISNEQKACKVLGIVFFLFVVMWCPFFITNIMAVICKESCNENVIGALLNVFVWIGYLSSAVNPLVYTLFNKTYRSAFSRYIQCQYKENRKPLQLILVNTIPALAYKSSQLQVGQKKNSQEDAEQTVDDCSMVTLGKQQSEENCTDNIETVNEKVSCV

[7] = molecular target: 5-hydroxytryptamine receptor 6 (Homo sapiens, UniProt P50406); test: Displacement of [3H]LSD from human cloned 5-HT6R expressed in HEK293 cells; assay type: cell-based
5-hydroxytryptamine receptor 6, sequence (P50406 whole entry): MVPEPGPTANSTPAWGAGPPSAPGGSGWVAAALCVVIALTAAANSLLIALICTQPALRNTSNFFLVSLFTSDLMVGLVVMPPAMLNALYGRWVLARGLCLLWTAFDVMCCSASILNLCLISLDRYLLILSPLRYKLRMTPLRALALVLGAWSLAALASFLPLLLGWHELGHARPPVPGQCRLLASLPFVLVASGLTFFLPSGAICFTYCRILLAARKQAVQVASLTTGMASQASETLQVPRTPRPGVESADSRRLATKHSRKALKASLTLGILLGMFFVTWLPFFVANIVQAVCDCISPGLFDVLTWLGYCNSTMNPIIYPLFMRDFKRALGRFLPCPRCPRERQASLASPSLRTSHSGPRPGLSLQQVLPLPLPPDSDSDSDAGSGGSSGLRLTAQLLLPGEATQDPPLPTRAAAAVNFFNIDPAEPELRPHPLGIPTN

[8] = molecular target: 5-hydroxytryptamine receptor 7 (Homo sapiens, UniProt P34969); test: Displacement of [3H]]-5-CT from human cloned 5-HT7R expressed in HEK293 cells; assay type: cell-based
5-hydroxytryptamine receptor 7, sequence (P34969 whole entry): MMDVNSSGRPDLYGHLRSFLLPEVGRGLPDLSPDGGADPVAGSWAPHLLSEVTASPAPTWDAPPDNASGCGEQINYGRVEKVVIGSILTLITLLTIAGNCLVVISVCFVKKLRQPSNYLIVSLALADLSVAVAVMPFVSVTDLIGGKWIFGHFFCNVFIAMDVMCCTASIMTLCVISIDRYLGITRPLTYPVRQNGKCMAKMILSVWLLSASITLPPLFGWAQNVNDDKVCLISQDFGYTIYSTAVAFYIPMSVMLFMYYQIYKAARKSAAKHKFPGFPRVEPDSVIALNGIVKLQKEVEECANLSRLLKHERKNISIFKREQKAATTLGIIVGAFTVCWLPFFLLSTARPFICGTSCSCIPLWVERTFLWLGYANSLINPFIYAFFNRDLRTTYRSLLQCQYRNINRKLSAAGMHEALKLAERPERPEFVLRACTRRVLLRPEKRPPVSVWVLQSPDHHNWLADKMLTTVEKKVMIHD

D(2) dopamine receptor = D(2) dopamine receptor (Rattus norvegicus, UniProt P61169); test: Displacement of [3H]-spiperone from dopamine D2 receptor in rat striatum
D(2) dopamine receptor, sequence (P61169 whole entry): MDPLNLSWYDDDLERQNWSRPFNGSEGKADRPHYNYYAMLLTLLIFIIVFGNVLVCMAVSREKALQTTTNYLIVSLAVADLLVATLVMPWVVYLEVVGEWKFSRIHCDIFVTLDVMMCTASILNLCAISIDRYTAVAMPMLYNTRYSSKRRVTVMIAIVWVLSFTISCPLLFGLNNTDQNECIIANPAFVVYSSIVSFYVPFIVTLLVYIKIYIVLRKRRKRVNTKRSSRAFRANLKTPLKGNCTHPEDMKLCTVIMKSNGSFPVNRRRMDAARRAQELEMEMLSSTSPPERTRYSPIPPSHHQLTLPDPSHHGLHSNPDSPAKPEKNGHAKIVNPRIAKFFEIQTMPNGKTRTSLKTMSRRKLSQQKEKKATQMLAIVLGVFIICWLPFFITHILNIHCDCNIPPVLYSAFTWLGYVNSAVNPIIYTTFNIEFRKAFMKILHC

Mus musculus [9] = test: Induction of hypothermia in mouse assessed as change in body temperature at 5 mg/kg, ip administered 30 mins before test and measured 30 mins post dose; assay type: functional, organism-based; design: dose 5 mg/kg
Mus musculus [10] = test: Induction of hypothermia in mouse assessed as change in body temperature at 10 mg/kg, ip administered 30 mins before test and measured 30 mins post dose; assay type: functional, organism-based; design: dose 10 mg/kg
Mus musculus [11] = test: Induction of hypothermia in mouse assessed as change in body temperature at 5 mg/kg, ip administered 30 mins before test and measured 60 mins post dose; assay type: functional, organism-based; design: dose 5 mg/kg
Mus musculus [12] = test: Induction of hypothermia in mouse assessed as change in body temperature at 10 mg/kg, ip administered 30 mins before test and measured 60 mins post dose; assay type: functional, organism-based; design: dose 10 mg/kg
Mus musculus [13] = test: Induction of hypothermia in mouse assessed as change in body temperature at 5 mg/kg, ip administered 30 mins before test and measured 90 mins post dose; assay type: functional, organism-based; design: dose 5 mg/kg
Mus musculus [14] = test: Induction of hypothermia in mouse assessed as change in body temperature at 10 mg/kg, ip administered 30 mins before test and measured 90 mins post dose; assay type: functional, organism-based; design: dose 10 mg/kg
Mus musculus [15] = test: Induction of hypothermia in mouse assessed as change in body temperature at 5 mg/kg, ip administered 30 mins before test and measured 120 mins post dose; assay type: functional, organism-based; design: dose 5 mg/kg
Mus musculus [16] = test: Induction of hypothermia in mouse assessed as change in body temperature at 10 mg/kg, ip administered 30 mins before test and measured 120 mins post dose; assay type: functional, organism-based; design: dose 10 mg/kg
Mus musculus [17] = test: Induction of hypothermia in mouse assessed as change in body temperature at 10 mg/kg, ip administered 30 mins before test and measured 30 mins post dose in presence of 0.3 mg/kg, sc 5HT1A receptor antagonist WAY 100635; assay type: functional, organism-based
Mus musculus [18] = test: Induction of hypothermia in mouse assessed as change in body temperature at 10 mg/kg, ip administered 30 mins before test and measured 60 mins post dose in presence of 0.3 mg/kg, sc 5HT1A receptor antagonist WAY 100635; assay type: functional, organism-based
Rattus norvegicus [19] = test: Induction of lower lip retraction in rat assessed as lower lip retraction scores at 5 mg/kg, ip dosed 15 mins before test; assay type: functional; conditions: route intraperitoneal
Rattus norvegicus [20] = test: Induction of lower lip retraction in rat assessed as lower lip retraction scores at 10 mg/kg, ip dosed 15 mins before test; assay type: functional; conditions: route intraperitoneal
Rattus norvegicus [21] = test: Inhibition of 8-OH-DPAT-induced lower lip retraction in rat assessed as lower lip retraction scores at 5 mg/kg, ip dosed 45 mins before 8-OH-DPAT; assay type: functional; conditions: route intraperitoneal
Rattus norvegicus [22] = test: Induction of lower lip retraction in rat assessed as lower lip retraction scores at 10 mg/kg, ip dosed 45 mins after 0.3 mg/kg, sc 5HT1A receptor antagonist WAY 100635; assay type: functional

pKi [5]: 7.96
pKi [6]: 6.51
pKi [7]: 4.99
pKi [8]: 6.46
pKi (D(2) dopamine receptor): 6.45
SMILES: Cl.Cn1c(=O)c2c(ncn2CCCCCN2CCN(c3ccccc3)CC2)n(C)c1=O
Activity (Mus musculus [1]): 50%
Activity (Mus musculus [2]): Non-toxic
Activity (Mus musculus [3]): inactive
Activity (Mus musculus [4]): inactive
deltaT (Mus musculus [9]): -1.4 °C
deltaT (Mus musculus [10]): -0.9 °C
deltaT (Mus musculus [11]): 1.1 °C
deltaT (Mus musculus [12]): -1.5 °C
deltaT (Mus musculus [13]): -0.1 °C
deltaT (Mus musculus [14]): -1.4 °C
deltaT (Mus musculus [15]): 0.4 °C
deltaT (Mus musculus [16]): -1.3 °C
deltaT (Mus musculus [17]): -0.2 °C
deltaT (Mus musculus [18]): -0.9 °C
Activity (Rattus norvegicus [19]): 0.4
Activity (Rattus norvegicus [20]): 2
Activity (Rattus norvegicus [21]): 1.7
Activity (Rattus norvegicus [22]): 0.2
